Laboratory results as given in paper PMC8155022 (Scientific Reports, 2021).
Like-named read-outs stand apart in the source and are kept apart here.

Legend:
[1] = target: T1, H1 (h) (Homo sapiens, UniProt P35367); assay: Cerep panel; assay type: binding
T1 construct: purchased Cerep (receptors, ion channels, transporters); Eurofins Panlabs (kinases)
Experimental: A panel of 52 different receptors, ion channels and transporters was tested by Cerep, Inc. (Redmond, WA).

[2] = target: ADRB2 (Homo sapiens, UniProt P07550); assay: GPCR panel, cAMP or calcium FLIPR assays; assay type: cell-based
Experimental: (§2) 28 GPCRs were evaluated through cAMP or calcium FLIPR assays[67].

[3] = target: AT1 (Homo sapiens, UniProt P30556); assay: GPCR panel, cAMP or calcium FLIPR assays; assay type: cell-based
AT1, sequence (P30556 whole entry): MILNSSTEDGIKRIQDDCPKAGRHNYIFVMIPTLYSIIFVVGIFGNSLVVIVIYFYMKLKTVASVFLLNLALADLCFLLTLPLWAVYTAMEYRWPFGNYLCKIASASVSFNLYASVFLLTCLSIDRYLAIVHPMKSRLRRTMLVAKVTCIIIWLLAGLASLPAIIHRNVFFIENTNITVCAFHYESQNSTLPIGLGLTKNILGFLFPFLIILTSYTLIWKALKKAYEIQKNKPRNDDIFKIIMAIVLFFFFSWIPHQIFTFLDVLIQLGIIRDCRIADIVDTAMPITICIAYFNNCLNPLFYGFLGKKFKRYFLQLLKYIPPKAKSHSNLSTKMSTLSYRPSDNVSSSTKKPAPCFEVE
Experimental: as §2

[4] = target: T2, PDGFRβ(h) (Homo sapiens, UniProt P09619); assay: Kinase panel; assay type: biochemical
T2 construct: purchased Cerep (receptors, ion channels, transporters); Eurofins Panlabs (kinases)
T2 sequence (P09619 33-1106): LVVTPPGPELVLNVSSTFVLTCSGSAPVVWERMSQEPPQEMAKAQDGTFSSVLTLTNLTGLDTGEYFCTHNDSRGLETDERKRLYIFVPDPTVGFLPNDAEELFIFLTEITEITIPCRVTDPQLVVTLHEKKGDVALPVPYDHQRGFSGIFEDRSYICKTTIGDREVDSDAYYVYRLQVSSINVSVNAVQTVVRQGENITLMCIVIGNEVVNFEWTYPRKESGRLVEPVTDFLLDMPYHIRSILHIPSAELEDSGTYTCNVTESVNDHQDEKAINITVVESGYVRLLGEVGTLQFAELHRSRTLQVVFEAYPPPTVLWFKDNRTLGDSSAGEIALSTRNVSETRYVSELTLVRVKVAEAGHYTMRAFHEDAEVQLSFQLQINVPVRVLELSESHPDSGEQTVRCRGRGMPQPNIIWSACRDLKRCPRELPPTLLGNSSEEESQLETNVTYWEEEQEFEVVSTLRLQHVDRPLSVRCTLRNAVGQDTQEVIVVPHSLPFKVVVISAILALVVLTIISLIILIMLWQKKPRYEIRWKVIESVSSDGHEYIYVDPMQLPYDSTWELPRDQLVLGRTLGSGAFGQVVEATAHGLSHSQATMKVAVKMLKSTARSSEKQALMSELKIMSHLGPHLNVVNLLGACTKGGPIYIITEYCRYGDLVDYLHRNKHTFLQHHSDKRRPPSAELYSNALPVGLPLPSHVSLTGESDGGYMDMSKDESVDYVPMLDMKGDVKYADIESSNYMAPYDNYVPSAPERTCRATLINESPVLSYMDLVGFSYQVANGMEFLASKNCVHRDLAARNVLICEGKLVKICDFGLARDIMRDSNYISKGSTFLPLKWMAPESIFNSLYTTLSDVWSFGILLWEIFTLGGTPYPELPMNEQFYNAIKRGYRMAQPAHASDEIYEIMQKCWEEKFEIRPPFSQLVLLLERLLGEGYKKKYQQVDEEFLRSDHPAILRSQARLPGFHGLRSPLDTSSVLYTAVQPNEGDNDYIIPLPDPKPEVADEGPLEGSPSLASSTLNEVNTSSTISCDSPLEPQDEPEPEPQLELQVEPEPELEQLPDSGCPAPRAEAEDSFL
Experimental: (§3) Kinase selectivity was conducted by Eurofins Panlabs Inc (St Charles, MO).

[5] = target: T3, PKCβI(h) (Homo sapiens, UniProt P05771); assay: Kinase panel; assay type: biochemical
T3 construct: purchased Cerep (receptors, ion channels, transporters); Eurofins Panlabs (kinases)
T3 sequence (P05771 whole entry): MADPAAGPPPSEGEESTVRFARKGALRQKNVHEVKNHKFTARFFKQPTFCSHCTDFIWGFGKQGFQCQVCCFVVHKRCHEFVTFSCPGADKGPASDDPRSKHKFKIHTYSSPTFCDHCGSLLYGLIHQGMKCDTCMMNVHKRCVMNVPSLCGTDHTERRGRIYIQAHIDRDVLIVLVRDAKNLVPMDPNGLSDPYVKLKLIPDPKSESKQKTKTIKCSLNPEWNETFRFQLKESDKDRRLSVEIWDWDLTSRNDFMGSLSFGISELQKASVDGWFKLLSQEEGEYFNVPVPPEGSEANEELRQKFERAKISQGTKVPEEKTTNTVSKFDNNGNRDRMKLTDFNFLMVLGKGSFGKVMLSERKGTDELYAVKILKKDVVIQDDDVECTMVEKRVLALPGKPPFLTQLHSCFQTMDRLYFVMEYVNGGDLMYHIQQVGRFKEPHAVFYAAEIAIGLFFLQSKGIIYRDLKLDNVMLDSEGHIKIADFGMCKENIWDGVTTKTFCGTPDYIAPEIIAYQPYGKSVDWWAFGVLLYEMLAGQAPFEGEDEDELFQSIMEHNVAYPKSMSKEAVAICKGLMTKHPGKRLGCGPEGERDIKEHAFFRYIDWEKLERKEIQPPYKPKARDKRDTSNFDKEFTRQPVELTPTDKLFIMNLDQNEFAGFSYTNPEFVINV
Experimental: as §3

[6] = tested on: human whole blood; assay: in vitro whole blood assay, IL-17A production; assay type: cell-based; conditions: human whole blood diluted 1:1; read-out: IC50, inhibition of IL-17A production
[7] = 1-month GLP toxicity study in rats; assay type: in vivo; conditions: Sprague-Dawley, in vivo, rat; for AUC(0-t) / Cmax: po, 400 mg/kg/day; for AUC(0-t): read-out: AUC0-24 h at NOAEL; for Cmax: read-out: Cmax at NOAEL
Experimental: (§1) The type of study plan was reviewed and agreed by the Laboratory Animal Welfare Officer and the Animal Ethical Committee (officially known as Dierexperimentencommissie (DEC) Charles River Den Bosch), as required by the Dutch Act on Animal Experimentation (February 1997). Both rat and dog studies were performed in AALAC accredited Charles River Laboratories in the Netherlands. Studies in rats were conducted with 0, 25, 100, and 400 mg/kg per day (n = 10/sex/group) for 1 month. An additional 5 animals/sex in vehicle and high dose were allowed to continue for a 1-month treatment-free recovery period. Studies in dogs were conducted with 0, 3, 10, and 30 mg/kg per day (n = 4/sex/group) for 1 month. A treatment-free recovery period of 1 month (additional 2 dogs/sex/group) was included for both vehicle controls and high dose groups. […] Rats and dogs were examined for mortality, clinical signs, ophthalmoscopic changes, body weight, food consumption, hematology, clinical chemistry, anatomic pathology, and toxicokinetics. In addition, dogs were examined for electrocardiographic changes. Rats and dogs were also assessed for reversal of any effects following a 1-month recovery period. These studies were conducted in compliance with good laboratory practice (GLP) regulations.

[8] = tested on: Sprague–Dawley rats; assay: 1-month GLP toxicity study in rats; assay type: in vivo; conditions: rat; recovered after 1-month recovery period
Experimental: as §1

[9] = tested on: bacterial reverse mutation assay (AMES test); assay: bacterial reverse mutation assay (AMES test); assay type: cell-based; conditions: in vitro
[10] = tested on: healthy human volunteers; assay: phase 1 single ascending dose study, safety
Experimental: Randomized, double-blind, placebo-controlled, single center study was designed by Janssen Immunology Clinical Development team and approved by Independent Ethics Committee/Institutional Review Board (Comité voor Medische Ethiek UZA, Wilrijkstraat 10, Edegem, 2650, Belgium). The study was conducted in Janssen’s Clinical Pharmacology Unit in Belgium from May 18th 2017 to April 5th 2018, according to Declaration of Helsinki principles and International Committee on Harmonisation Good Clinical Practice guidelines. […] Participants were healthy males and females of non-childbearing potential (postmenopausal or permanently sterile), aged 18 to 60 years inclusive, with a body mass index of 18 and 30 kg/m^2 and body weight of not less than 50 kg. Informed consent was obtained from all participants. No formal sample size and power calculations were performed. The number of participants chosen for this study was considered adequate to provide a preliminary safety assessment and PK assessment. The randomization was based on a computer-generated treatment randomization schedule prepared and balanced by using randomly permuted blocks. […] Participants and study site staff members including the Investigator were blinded to treatment allocation during entire study period. […] Cohorts 1 to 4 received single oral doses of 10, 30, 100 and 200 mg after an overnight fast, and cohort 5 were dosed 100 mg within 30 min of the start of a standard high fat meal. […] For all parts of the study, adverse events and concomitant medications were assessed and recorded from screening through follow-up (day 14–21 post-dose). The following safety measures were assessed at various time points during the study: medical history, physical examination, neurologic examination, electrocardiogram (12-lead ECG, or continuous telemetry), and vital signs (blood pressure, heart rate, respiratory rate, and temperature). […] This was a Phase 1 first-in-human study with limited sample size, the data generated was descriptive in nature, and no formal statistical hypothesis testing was planned. Although there was no formal interim analysis, assessments of PK and PD samples by cohort and safety assessments were conducted and reviewed during the study to plan dose-escalation and future development.

[11] = 100 mg (fasted) n = 9, single oral dose
[12] = 100 mg (fed) n = 9, single oral dose

ADRB2, sequence (P07550 whole entry, species assumed): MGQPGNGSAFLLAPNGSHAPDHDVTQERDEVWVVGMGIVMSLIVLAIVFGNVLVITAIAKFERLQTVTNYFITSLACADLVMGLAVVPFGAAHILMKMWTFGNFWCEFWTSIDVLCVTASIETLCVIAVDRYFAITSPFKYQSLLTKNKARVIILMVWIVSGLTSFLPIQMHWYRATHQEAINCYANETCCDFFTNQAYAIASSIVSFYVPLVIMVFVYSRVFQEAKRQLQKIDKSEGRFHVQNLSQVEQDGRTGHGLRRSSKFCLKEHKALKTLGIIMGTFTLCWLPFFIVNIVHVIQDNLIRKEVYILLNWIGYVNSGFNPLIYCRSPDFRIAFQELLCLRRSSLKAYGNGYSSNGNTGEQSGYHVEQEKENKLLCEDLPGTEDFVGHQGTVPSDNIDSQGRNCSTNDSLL
T1 sequence (P35367 whole entry): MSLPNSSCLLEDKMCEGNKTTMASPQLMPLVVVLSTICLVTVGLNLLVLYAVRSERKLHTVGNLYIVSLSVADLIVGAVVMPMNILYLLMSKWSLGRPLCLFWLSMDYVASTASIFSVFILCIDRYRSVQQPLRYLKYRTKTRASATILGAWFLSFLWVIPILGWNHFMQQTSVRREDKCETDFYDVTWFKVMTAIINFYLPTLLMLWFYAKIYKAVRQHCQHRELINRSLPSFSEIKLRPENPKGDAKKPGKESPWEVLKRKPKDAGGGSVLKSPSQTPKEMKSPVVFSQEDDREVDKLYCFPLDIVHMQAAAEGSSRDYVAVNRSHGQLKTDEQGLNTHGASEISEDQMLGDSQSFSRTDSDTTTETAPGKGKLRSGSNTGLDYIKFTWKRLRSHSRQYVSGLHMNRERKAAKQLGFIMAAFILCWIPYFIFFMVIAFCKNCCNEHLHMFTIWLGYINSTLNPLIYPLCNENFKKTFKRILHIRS

## CC1CCCN1C(=O)c1nc(C(=O)NCC(C)(C)O)sc1-c1ccc(C(O)(C(F)(F)F)C(F)(F)F)c(Cl)c1Cl (centres unmarked) [JNJ-61803534]
[1]
  inhibition at 1 µM: < 10%
  inhibition at 10 µM: < 10%
[2]; agonist
  EC50: > 12.5 µM
[2]; antagonist
  IC50: > 12.5 µM
[3]; agonist
  EC50: > 5 µM
[3]; antagonist
  IC50: > 5 µM
[4]
  activity at 1 µM: 103%
  activity at 10 µM: 143%
[5]
  activity at 1 µM: 97%
  activity at 10 µM: 87%
[6]
  IC50: 0.23 ± 0.11 µM
[7]; female
  AUC(0-t): 376 µg·h/mL
  Cmax: 24200 ng/mL
[7]; male
  AUC(0-t): 310 µg·h/mL
  Cmax: 29600 ng/mL
[7]; both sexes, 1 month oral, highest dose tested, read-out: no-observed-adverse-effect level (NOAEL)
  NOAEL at 1 month: 400 mg/kg/day
[8]
  lymphocyte apoptosis in thymus: dose-dependent lymphocyte apoptosis in thymus was observed
[9]
  genetic toxicity: negative
[10]; 10 mg n = 6, single oral dose
  Aphthous ulcer, treatment-emergent adverse events: 0
  Back pain, treatment-emergent adverse events: 1
  Diarrhea, treatment-emergent adverse events: 0
  Headache, treatment-emergent adverse events: 0
  Hypercholesterolaemia, treatment-emergent adverse events: 0
  Medical device site reaction, treatment-emergent adverse events: 0
  Musculoskeletal discomfort, treatment-emergent adverse events: 0
  Nasal congestion, treatment-emergent adverse events: 0
  Oral herpes, treatment-emergent adverse events: 0
  Viral upper respiratory tract infection, treatment-emergent adverse events: 0
[10]; 30 mg n = 6, single oral dose
  Aphthous ulcer, treatment-emergent adverse events: 0
  Back pain, treatment-emergent adverse events: 0
  Diarrhea, treatment-emergent adverse events: 0
  Headache, treatment-emergent adverse events: 1
  Hypercholesterolaemia, treatment-emergent adverse events: 0
  Medical device site reaction, treatment-emergent adverse events: 1
  Musculoskeletal discomfort, treatment-emergent adverse events: 0
  Nasal congestion, treatment-emergent adverse events: 0
  Oral herpes, treatment-emergent adverse events: 1
  Viral upper respiratory tract infection, treatment-emergent adverse events: 0
[10]; [11]
  Aphthous ulcer, treatment-emergent adverse events: 0
  Back pain, treatment-emergent adverse events: 1
  Diarrhea, treatment-emergent adverse events: 2
  Headache, treatment-emergent adverse events: 4
  Hypercholesterolaemia, treatment-emergent adverse events: 2
  Medical device site reaction, treatment-emergent adverse events: 2
  Musculoskeletal discomfort, treatment-emergent adverse events: 0
  Nasal congestion, treatment-emergent adverse events: 2
  Oral herpes, treatment-emergent adverse events: 0
  Viral upper respiratory tract infection, treatment-emergent adverse events: 2
[10]; [12]
  Aphthous ulcer, treatment-emergent adverse events: 1
  Back pain, treatment-emergent adverse events: 1
  Diarrhea, treatment-emergent adverse events: 2
  Headache, treatment-emergent adverse events: 0
  Hypercholesterolaemia, treatment-emergent adverse events: 0
  Medical device site reaction, treatment-emergent adverse events: 2
  Musculoskeletal discomfort, treatment-emergent adverse events: 0
  Nasal congestion, treatment-emergent adverse events: 0
  Oral herpes, treatment-emergent adverse events: 1
  Viral upper respiratory tract infection, treatment-emergent adverse events: 2
[10]; 100 mg fasted group
  participants with clinically significant high cholesterol values: 2
[10]; 200 mg fasted group
  participants with clinically significant high cholesterol values: one
[10]; 200 mg n = 6, single oral dose
  Aphthous ulcer, treatment-emergent adverse events: 1
  Back pain, treatment-emergent adverse events: 1
  Diarrhea, treatment-emergent adverse events: 0
  Headache, treatment-emergent adverse events: 0
  Hypercholesterolaemia, treatment-emergent adverse events: 1
  Medical device site reaction, treatment-emergent adverse events: 1
  Musculoskeletal discomfort, treatment-emergent adverse events: 2
  Nasal congestion, treatment-emergent adverse events: 0
  Oral herpes, treatment-emergent adverse events: 0
  Viral upper respiratory tract infection, treatment-emergent adverse events: 0
[10]; combined JNJ-61803534 group
  participants with Grade 2 or higher abnormal cholesterol values: Fourteen
[10]; combined JNJ-61803534 group (diarrhea)
  participants with TEAEs reasonably related to the study agent: 1
[10]; in vivo
  TEAEs leading to death, treatment-emergent severe adverse events, severe TEAEs or TEAEs leading to discontinuation: no
[10]; single doses up to and including 200 mg
  safety and tolerability: safe and well-tolerated
